Experimental data reported in US10201523B2, “Use of wilforlide A for overcoming chemotherapy resistance” (WESTERN UNIVERSITY OF HEALTH SCIENCES, priority 2013, dated 2019).
Values joined by “and” are separate entries in the source; they are usually repeats but may differ in a detail not shown here. Equal values may be shown once.

Tested on: PC3
Test: SRB cell viability assay, docetaxel with/without wilforlide A pretreatment
Conditions: PC3
[1] = no wilforlide A pre-Tx (control of Table 4), docetaxel 0.001 nM 72 h
[2] = no wilforlide A pre-Tx (control of Table 4), docetaxel 0.1 nM 72 h
[3] = no wilforlide A pre-Tx (control of Table 4), docetaxel 0.333 nM 72 h
[4] = no wilforlide A pre-Tx (control of Table 4), docetaxel 1 nM 72 h
[5] = no wilforlide A pre-Tx (control of Table 4), docetaxel 3.33 nM 72 h
[6] = no wilforlide A pre-Tx (control of Table 4), docetaxel 10 nM 72 h
[7] = no wilforlide A pre-Tx (control of Table 4), docetaxel 33.3 nM 72 h
[8] = no wilforlide A pre-Tx (control of Table 4), docetaxel 100 nM 72 h
[9] = no wilforlide A pre-Tx (control of Table 6), docetaxel 0.001 nM 72 h
[10] = no wilforlide A pre-Tx (control of Table 6), docetaxel 0.1 nM 72 h
[11] = no wilforlide A pre-Tx (control of Table 6), docetaxel 0.333 nM 72 h
[12] = no wilforlide A pre-Tx (control of Table 6), docetaxel 1 nM 72 h
[13] = no wilforlide A pre-Tx (control of Table 6), docetaxel 3.33 nM 72 h
[14] = no wilforlide A pre-Tx (control of Table 6), docetaxel 10 nM 72 h
[15] = no wilforlide A pre-Tx (control of Table 6), docetaxel 33.3 nM 72 h
[16] = no wilforlide A pre-Tx (control of Table 6), docetaxel 100 nM 72 h
[17] = no wilforlide A pre-Tx (control of Table 8), docetaxel 0.001 nM 72 h
[18] = no wilforlide A pre-Tx (control of Table 8), docetaxel 0.1 nM 72 h
[19] = no wilforlide A pre-Tx (control of Table 8), docetaxel 0.333 nM 72 h
[20] = no wilforlide A pre-Tx (control of Table 8), docetaxel 1 nM 72 h
[21] = no wilforlide A pre-Tx (control of Table 8), docetaxel 3.33 nM 72 h
[22] = no wilforlide A pre-Tx (control of Table 8), docetaxel 10 nM 72 h
[23] = no wilforlide A pre-Tx (control of Table 8), docetaxel 33.3 nM 72 h
[24] = no wilforlide A pre-Tx (control of Table 8), docetaxel 100 nM 72 h
[25] = wilforlide A 0.6 μg/ml pre-Tx, docetaxel 0.1 nM 72 h
[26] = wilforlide A 0.6 μg/ml pre-Tx, docetaxel 0.333 nM 72 h
[27] = wilforlide A 0.6 μg/ml pre-Tx, docetaxel 1 nM 72 h
[28] = wilforlide A 0.6 μg/ml pre-Tx, docetaxel 3.33 nM 72 h
[29] = wilforlide A 0.6 μg/ml pre-Tx, docetaxel 10 nM 72 h
[30] = wilforlide A 0.6 μg/ml pre-Tx, docetaxel 33.3 nM 72 h
[31] = wilforlide A 0.6 μg/ml pre-Tx, docetaxel 100 nM 72 h
[32] = wilforlide A 2.5 μg/ml pre-Tx, docetaxel 0.001 nM 72 h
[33] = wilforlide A 2.5 μg/ml pre-Tx, docetaxel 0.1 nM 72 h
[34] = wilforlide A 2.5 μg/ml pre-Tx, docetaxel 0.333 nM 72 h
[35] = wilforlide A 2.5 μg/ml pre-Tx, docetaxel 1 nM 72 h
[36] = wilforlide A 2.5 μg/ml pre-Tx, docetaxel 3.33 nM 72 h
[37] = wilforlide A 2.5 μg/ml pre-Tx, docetaxel 10 nM 72 h
[38] = wilforlide A 2.5 μg/ml pre-Tx, docetaxel 33.3 nM 72 h
[39] = wilforlide A 2.5 μg/ml pre-Tx, docetaxel 100 nM 72 h
[40] = wilforlide A […] pre-Tx, docetaxel 0.001 nM 72 h
[41] = wilforlide A […] pre-Tx, docetaxel 0.1 nM 72 h
[42] = wilforlide A […] pre-Tx, docetaxel 0.333 nM 72 h
[43] = wilforlide A […] pre-Tx, docetaxel 1 nM 72 h
[44] = wilforlide A […] pre-Tx, docetaxel 3.33 nM 72 h
[45] = wilforlide A […] pre-Tx, docetaxel 10 nM 72 h
[46] = wilforlide A […] pre-Tx, docetaxel 33.3 nM 72 h
[47] = wilforlide A […] pre-Tx, docetaxel 100 nM 72 h

Description: Following the 72 hour wilforlide A treatment, a sulforhodamine B (SRB) assay was used to quantitate living cells. To perform the assay, the wilforlide A media was aspirated from each well, and replaced with a 10% solution of cold trichloroacetic acid (TCA) (Cat #: T6399, purchased from Sigma-Aldrich), and incubated for one hour at 4° C. After the TCA incubation, the TCA solution was aspirated, and the cells were washed five times with tap water. After removing the last wash, the plates were left with lids off at room temperature until the surfaces were dry, which took one to two hours. Then 50 μl of a 0.4% solution of sul-forhodamine B (SRB) sodium salt (Cat #: S9012, purchased from Sigma-Aldrich) was added to each well and the plates were incubated at room temperature for 20 to 30 minutes. Afterwards, the wells were washed five times with a 1% acetic acid solution in 10 mM TRIS base (Cat #: 161-0719, purchased from Bio-Rad Laboratories, Hercules, Calif.). The plates were subsequently left to dry for several hours or overnight. SRB that remained in the dried wells was solubilized by adding 100 μl of SRB solubilization solution (10 mM TRIS base) to each well, and placing the plates either on a gently-moving shaker or letting the plates remain stationary at room temperature until the SRB dissolves, which takes about five to ten minutes. The amount of SRB in each well, which correlated directly to the number of living cells at fixation, was determined spectrophotometrically at an absorbance of 565 nm by a microplate reader.
In these comparisons, the in vitro IC50 of a tested chemotherapeutic drug (D) in cell culture was compared to the drug's IC50 when drug treatment followed pretreatment of the cells with wilforlide A (Purchased from PI & PI Technology Inc. of Guangzhou, China or the National Institutes for Food and Drug Control in Beijing, China).
Triplicate wells were assigned to each experimental condition tested, and a 24 hour recovery period for the cells following the seeding of the wells was allowed. During the recovery period, the cells were incubated at 37° C. and 5% CO2.
At the end of the two hour pre-treatment period, 50 μl aliquots of the desired chemotherapeutic drug RPMI medium were added according to the amounts provided in Table 2.
After adding the various doses of chemotherapeutic drugs, as described above, the cells were incubated for an additional 72 hours under the same temperature and atmospheric conditions used for the pre-treatment step.
The cells were then incubated for 72 hours at 37° C. and 5% CO2. After the 72 hour incubation, sulforhodamine B (SRB) assays were performed as described in Example 1 to quantitate living cells.

## CC(=O)O[C@@]12CO[C@@H]1C[C@H](O)[C@@]1(C)C(=O)[C@H](O)C3=C(C)[C@@H](OC(=O)[C@H](O)[C@@H](NC(=O)OC(C)(C)C)c4ccccc4)C[C@@](O)([C@@H](OC(=O)c4ccccc4)[C@H]21)C3(C)C [docetaxel]
[1]
  % viable: 100.0%
  mean A: 1.839
No wilforlide A pre-Tx (control of Table 4), docetaxel 0.001 nM 72 h, background = 0.043
  A at 565 nm: 1.827 and 1.892 and 1.800
[2]
  % viable: 102.0%
  mean A: 1.876
No wilforlide A pre-Tx (control of Table 4), docetaxel 0.1 nM 72 h, background = 0.043
  A at 565 nm: 1.875 and 1.878
[3]
  % viable: 97.7%
  mean A: 1.796
No wilforlide A pre-Tx (control of Table 4), docetaxel 0.333 nM 72 h, background = 0.043
  A at 565 nm: 1.845 and 1.808 and 1.737
[4]
  % viable: 74.7%
  mean A: 1.374
No wilforlide A pre-Tx (control of Table 4), docetaxel 1 nM 72 h, background = 0.043
  A at 565 nm: 1.452 and 1.366 and 1.306
[5]
  % viable: 46.3%
  mean A: 0.851
No wilforlide A pre-Tx (control of Table 4), docetaxel 3.33 nM 72 h, background = 0.043
  A at 565 nm: 0.862 and 0.832 and 0.860
[6]
  % viable: 22.5%
  mean A: 0.415
No wilforlide A pre-Tx (control of Table 4), docetaxel 10 nM 72 h, background = 0.043
  A at 565 nm: 0.432 and 0.409 and 0.404
[7]
  % viable: 16.4%
  mean A: 0.303
No wilforlide A pre-Tx (control of Table 4), docetaxel 33.3 nM 72 h, background = 0.043
  A at 565 nm: 0.321 and 0.295 and 0.293
[8]
  % viable: 15.9%
  mean A: 0.293
No wilforlide A pre-Tx (control of Table 4), docetaxel 100 nM 72 h, background = 0.043
  A at 565 nm: 0.300 and 0.270 and 0.311
[9]
  % viable: 100.0%
  mean A: 1.952
No wilforlide A pre-Tx (control of Table 6), docetaxel 0.001 nM 72 h, background = 0.044
  A at 565 nm: 1.888 and 2.010 and 1.957
[10]
  % viable: 100.7%
  mean A: 1.966
No wilforlide A pre-Tx (control of Table 6), docetaxel 0.1 nM 72 h, background = 0.044
  A at 565 nm: 1.980 and 1.925 and 1.992
[11]
  % viable: 93.1%
  mean A: 1.817
No wilforlide A pre-Tx (control of Table 6), docetaxel 0.333 nM 72 h, background = 0.044
  A at 565 nm: 1.735 and 1.845 and 1.871
[12]
  % viable: 70.9%
  mean A: 1.384
No wilforlide A pre-Tx (control of Table 6), docetaxel 1 nM 72 h, background = 0.044
  A at 565 nm: 1.398 and 1.314 and 1.441
[13]
  % viable: 46.6%
  mean A: 0.909
No wilforlide A pre-Tx (control of Table 6), docetaxel 3.33 nM 72 h, background = 0.044
  A at 565 nm: 0.895 and 0.942 and 0.889
[14]
  % viable: 22.9%
  mean A: 0.447
No wilforlide A pre-Tx (control of Table 6), docetaxel 10 nM 72 h, background = 0.044
  A at 565 nm: 0.464 and 0.427 and 0.450
[15]
  % viable: 18.1%
  mean A: 0.354
No wilforlide A pre-Tx (control of Table 6), docetaxel 33.3 nM 72 h, background = 0.044
  A at 565 nm: 0.337 and 0.357 and 0.368
[16]
  % viable: 18.4%
  mean A: 0.360
No wilforlide A pre-Tx (control of Table 6), docetaxel 100 nM 72 h, background = 0.044
  A at 565 nm: 0.349 and 0.366 and 0.365
[17]
  % viable: 100.0%
  mean A: 1.990
[18]
  % viable: 101.2%
  mean A: 2.014
[19]
  % viable: 95.1%
  mean A: 1.892
[20]
  % viable: 71.2%
  mean A: 1.417
[21]
  % viable: 45.8%
  mean A: 0.911
[22]
  % viable: 23.0%
  mean A: 0.458
[23]
  % viable: 17.8%
  mean A: 0.354
[24]
  % viable: 17.4%
  mean A: 0.346
Wilforlide A 0.6 μg/ml pre-Tx, docetaxel 0.001 nM 72 h
  mean A: 1.807
Wilforlide A 0.6 μg/ml pre-Tx, docetaxel 0.001 nM 72 h, background = 0.043
  A at 565 nm: 1.812 and 1.840 and 1.769
[25]
  % viable: 102.3%
  mean A: 1.848
Wilforlide A 0.6 μg/ml pre-Tx, docetaxel 0.1 nM 72 h, background = 0.043
  A at 565 nm: 1.855 and 1.874 and 1.816
[26]
  % viable: 99.3%
  mean A: 1.794
Wilforlide A 0.6 μg/ml pre-Tx, docetaxel 0.333 nM 72 h, background = 0.043
  A at 565 nm: 1.759 and 1.804 and 1.820
[27]
  % viable: 72.9%
  mean A: 1.317
Wilforlide A 0.6 μg/ml pre-Tx, docetaxel 1 nM 72 h, background = 0.043
  A at 565 nm: 1.303 and 1.386 and 1.263
[28]
  % viable: 44.9%
  mean A: 0.811
Wilforlide A 0.6 μg/ml pre-Tx, docetaxel 3.33 nM 72 h, background = 0.043
  A at 565 nm: 0.843 and 0.814 and 0.777
[29]
  % viable: 22.7%
  mean A: 0.409
Wilforlide A 0.6 μg/ml pre-Tx, docetaxel 10 nM 72 h, background = 0.043
  A at 565 nm: 0.408 and 0.421 and 0.400
[30]
  % viable: 17.5%
  mean A: 0.316
Wilforlide A 0.6 μg/ml pre-Tx, docetaxel 33.3 nM 72 h, background = 0.043
  A at 565 nm: 0.302 and 0.323
[31]
  % viable: 16.5%
  mean A: 0.299
Wilforlide A 0.6 μg/ml pre-Tx, docetaxel 100 nM 72 h, background = 0.043
  A at 565 nm: 0.290 and 0.287 and 0.320
[32]
  % viable: 100.0%
  mean A: 1.752
[33]
  % viable: 101.9%
  mean A: 1.786
[34]
  % viable: 94.1%
  mean A: 1.648
Wilforlide A 2.5 μg/ml pre-Tx, docetaxel 0.333 nM 72 h, background = 0.044
  A at 565 nm: 1.672
[35]
  % viable: 69.8%
  mean A: 1.222
Wilforlide A 2.5 μg/ml pre-Tx, docetaxel 1 nM 72 h, background = 0.044
  A at 565 nm: 1.201
[36]
  % viable: 43.9%
  mean A: 0.769
Wilforlide A 2.5 μg/ml pre-Tx, docetaxel 3.33 nM 72 h, background = 0.044
  A at 565 nm: 0.810
[37]
  % viable: 23.0%
  mean A: 0.403
Wilforlide A 2.5 μg/ml pre-Tx, docetaxel 10 nM 72 h, background = 0.044
  A at 565 nm: 0.402
[38]
  % viable: 19.2%
  mean A: 0.336
Wilforlide A 2.5 μg/ml pre-Tx, docetaxel 33.3 nM 72 h, background = 0.044
  A at 565 nm: 0.358
[39]
  % viable: 18.4%
  mean A: 0.322
Wilforlide A 2.5 μg/ml pre-Tx, docetaxel 100 nM 72 h, background = 0.044
  A at 565 nm: 0.318
[40]
  % viable: 100.0%
  mean A: 1.957
[41]
  % viable: 100.4%
  mean A: 1.965
[42]
  % viable: 92.2%
  mean A: 1.804
[43]
  % viable: 67.0%
  mean A: 1.311
[44]
  % viable: 41.7%
  mean A: 0.816
[45]
  % viable: 23.9%
  mean A: 0.467
[46]
  % viable: 19.1%
  mean A: 0.373
[47]
  % viable: 18.4%
  mean A: 0.361
read-out: Drug IC50 after wilforlide A pre-Tx, pre-Tx amount of wilforlide A printed as none added
  IC50: 1.61 nM
